# Patent EP4019017A1, “COMPOSITION COMPRISING MELATONIN, PIPERINE AND VITAMIN D, CONTROLLED-RELEASE FORMULATION AND USE THEREOF FOR THE TREATMENT OF SLEEP DISORDERS” (Uriach Consumer Healthcare, S.L., priority 2020, dated 2022)
# Like-named read-outs stand apart in the source and are kept apart here.
# How the values were obtained:
# [1] = tested on: Intestinal cells (Caco-2); test: Intestinal cells - cell viability; type: cell-based; parameters: unit not given here
# From the text: For this purpose, intestinal barrier model (transwell, patented model from Novara University, Italy) is used to determine the rate of passage and therefore to estimate a better pass-effect of melatonin in combination with piperine and vitamin D than melatonin alone. In this phase, vitality will also be assessed in the presence of the treatments alone and in combination with melatonin, in addition to melatonin alone. […] A time-dependent trend can be observed for all tested substances. In addition, substances other than melatonin have an efficacy that resolves within 2-4 hours of treatment.
# [2] = cited from earlier work
# [3] = tested on: Intestinal cells (Caco-2); test: Intestinal absorption rate, intestinal barrier model (transwell), fluorescent tracer; type: in vitro ADME
# From the text: For this purpose, intestinal barrier model (transwell, patented model from Novara University, Italy) is used to determine the rate of passage and therefore to estimate a better pass-effect of melatonin in combination with piperine and vitamin D than melatonin alone. In this phase, vitality will also be assessed in the presence of the treatments alone and in combination with melatonin, in addition to melatonin alone. […] 3.1.b. Intestinal absorption: to determine speed based on the fluorescent tracer, the percentage velocity calculated with respect to the control.
# [4] = Time 1 h, Melatonin 1mM, Piperine 5µM, Vitamin D3 1nM, Vitamin B6 500µM
Structure (SMILES),"Cell viability, Average [1, 4]","Cell viability, Average ([1]; Time 2 h)","Cell viability, Average ([1]; Time 3 h)","Cell viability, Average ([1]; Time 4 h)","Cell viability, Average ([1]; Time 5 h)","Cell viability, Average ([1]; Time 6 h)",solubility ([2]; in alcohol),solubility ([2]; in water),Speed (percentage velocity calculated with respect to the control) ([3]; Time 2 h),Speed (percentage velocity calculated with respect to the control) ([3]; Time 3 h),Speed (percentage velocity calculated with respect to the control) ([3]; Time 4 h),Speed (percentage velocity calculated with respect to the control) ([3]; Time 5 h),Speed (percentage velocity calculated with respect to the control) ([3]; Time 6 h),Speed (percentage velocity calculated with respect to the control) ([3]; time 1 h),Speed (percentage velocity calculated with respect to the control) ([3]; time point printed as 30)
"COc1ccc2[nH]cc(CCNC(C)=O)c2c1 [Melatonin, N-[2-(5-Methoxy-1H-indol-3-yl)ethyl]acetamide]",13.375,10.905,7.57,6.965,2.57,1.005,,,,,,,,,
"O=C(/C=C/C=C/c1ccc2c(c1)OCO2)N1CCCCC1 [Piperine, (2E,4E)-5-(2H-1,3-Benzodioxol-5-yl)-1-(piperidin-1-yl)penta-2,4-dien-1-one]",6.37,30.25,21.625,14.125,12.32,6.74,soluble,insoluble,,,,,,,
"Cc1ncc(CO)c(CO)c1O.Cl [Vitamin B6, Pyridoxine HCI]",11.985,5.215,5.965,9.105,3.565,4.8,,,,,,,,,
C=C1CC[C@H](O)C/C1=C/C=C1\CCC[C@]2(C)[C@@H]([C@H](C)CCCC(C)C)CC[C@@H]12 [Vitamin D3],6.91,14.185,18.32,16.325,9.315,0.78,,,15.00%,19.00%,17.00%,13.00%,10.00%,10.00%,8.00%
